Experimental data published in patent US20020034534A1, “System and method for delivering a therapeutic agent over an extended period of time in conjuction with a receptor loading dose of the therapeutic agent” (priority 1999, published 2002).

Experiments:
[1] = Naltrexone plasma pharmacokinetics from the literature and its reinterpretation; assay type: in vivo
Source text: Phase II (RLD)—Days two to thirty. […] The higher serum levels of this phase serve two purposes. First, for the particular therapeutic agent chosen, the long-term maintenance dose releases drug slowly at a constant (zero order) rate. […] It has the disadvantage, however, that the plasma level will slowly rise until it reaches a plateau, which is referred to as steady state. The time to reach steady state is a function of the drug's half-life, a measure of the time it takes for half of the drug to be eliminated from the body. It takes approximately six half-lives to reach steady state for any drug. […] During this time it is essential that an additional source of drug be administered as a receptor loading dose to continue to saturate the drug receptors. A second reason for this loading dose, particularly for drugs used to treat addictions, is to prevent cravings and other withdrawal symptoms.
A period of approximately 3.3 half-lives is necessary to achieve a 90% receptor occupancy level.
Phase II (months 1 to 2) provides higher levels than the minimum needed to prevent narcotic highs. […] For pharmacokinetic reasons, the higher levels are also needed until the steady state distribution levels are reached through the slower maintenance dose.

[2] = test system: opiate receptors; settings: recommended dose of 50 mg taken orally; cited from earlier work

O=C1CC[C@@]2(O)[C@H]3Cc4ccc(O)c5c4[C@@]2(CCN3CC2CC2)[C@H]1O5 [naltrexone]
time to reach 90% receptor occupancy level ([1]; calculated as 3.3×72 hr at the maintenance rate): about 10 days
time to reach 98% occupancy ([1]; maintenance rate): about 20 days
steady state level ([1]; subcutaneous product, zero order rate of 0.56 mg/day): about 7.5 ng/ml
duration of complete blockage [2]: 24 h
